Assay results taken from US4997850A, “Treating agent for osteroarthritis” (Kureha Kagaku Kogyo Kabushiki Kaisha, priority 1989, dated 1991).
Counter-ions that a name gives are not always drawn.

How the values were obtained:
[1] = Acute toxicity (LD50) of further compounds, determined in the same manner as ACP; type: in vivo; details: same manner as ACP (oral or subcutaneous, mice and rats)
Protocol: For oral administration, a suspension of ACP dispersed in an aqueous solution of 0.5% methylcellulose and 0.4% Tween 80 (nonionic surfactant, manufactured by TOKYO KASEI, Co., Ltd.) was prepared and administered to the animals via a stomach sonde. For subcutaneous administration, a suspension of ACP dispersed in an aqueous physiological saline solution containing 0.5% of carboxymethyl cellulose sodium (hereinafter referred to as "CMC") was prepared and injected to the animals with a syringe.
Further, the acute toxicities (LD50) of […]

[2] = tested on: IL-1 release from human monocyte; assay: Inhibition of IL-1 (IL-1α and IL-1β) release from human monocyte; type: cell-based; details: 3.3 μM; LPS 10 μg/ml, 42 hours
Protocol: Monocyte were isolated from human venous blood by density-gradient centrifugation using a Ficoll-paque solution and obtained the cells having a purity of not less than 95% by purifying with a monocyte-separating plate. After dispersing the cells in a medium, RPMI 1640, containing 10% of FBS, the monocyte were inoculated in a culture dish in a ratio of 10^6 cells/3 ml/well and cultured under an atmosphere containing 5% CO2 at 37° C. for 30 minutes. Then, each 15 μl of DMSO solution of one of ACP, PAL and PAC was added to each well (a final DMSO concentration of 0.5%) and 30 minutes later a lipopolysaccharide (hereinafter referred to as "LPS"), a substance to stimulate IL-1 production, was added at a final LPS concentration of 10 μg/ml and they were cultured for 42 hours. Then, the reacted culture medium was recovered and accompanied cells with the medium were separated by centrifugation and obtained the supernatant free of cell. IL-1α and IL-1β released from the cells were measured by ELISA method in the same manner as in item (i) above.

[3] = tested on: proteoglycan (PG) release under IL-1α; assay: Proteoglycan (PG) release from prelabelled cultured cartilage matrix with addition of IL-1α; type: cell-based; details: for inhibition of PG release under IL-1α: 20 units of IL-1α, 10 μM; for inhibiting activity on PG release (further compounds): concentration not given
Protocol: Further, to a cultured cartilage matrix, in which PG is prelabelled in advance with 1 μCi of Na2^35 SO4, 20 units of IL-1α was added to each group including control group and 10 μM of PAL, 100 μM of PAL or 10 μM of ACP was added to each test group and studied the effect of each compound to the PG release from the cells.

[4] = Acute toxicity (LD50) of PAC in male mice; type: in vivo; details: intraperitoneal
[5] = tested on: IL-1α production in human synovial cells; assay: Inhibition of IL-1α production in human synovial cells; type: cell-based; details: 33 μM; TPA and A 23187 stimulation, 40 hours
Protocol: (§1) Human synovial membrane obtained at an operation was treated with collagenase to obtain synovial cells, which were subcultured several times and inoculated on a 12-well culture dish. On reaching to confluence, the cells were provided to the test described below. The synovial cells produce IL-1 but release only a little amount and accordingly are appropriate cells to study an inhibition or an acceleration of IL-1 intracellular production.
(§2) Each DMSO (dimethylsulfoxide) solution containing one of ACP, PAL and PAC separately in a concentration of 400 times that of the final test and DMSO solution not containing any of the compound as a control, were diluted to 40 times in its volume with a medium containing fetal bovine serum (hereinafter referred to as "FBS") [Ham Medium]. 100 μl of the diluted solution was added to each well and further, 800 μl of the medium [Ham] was added to each well. […] The concentration of TPA and the ionophore in the medium were adjusted so that their final concentration in the well became 0.1 μg/ml and 0.2 μg/ml, respectively and a production of IL-1 was stimulated. Final volume of the liquid (medium) per well was 1 ml/well. After 40 hours of culture, liquid portion was removed from each well and 1 ml of a Ham medium was added to the remaining cells in each well. Freeze-thawing was repeated on the medium containing the cells several times to destroy all the cells in the medium and supernatants containing intracellular substances were obtained by centrifugation. IL-1α and IL-1β in the supernatant were determined by ELISA method using a prescribed enzyme-antibody-complex (manufactured by OHTSUKA SEIYAKU, Co., Ltd.) as intracellular IL-1s. [Refer to ENSHO, vol.

[6] = tested on: IL-1β production in human synovial cells; assay: Inhibition of IL-1β production in human synovial cells; type: cell-based; details: 33 μM; TPA and A 23187 stimulation, 40 hours
Protocol: as §1, §2

[7] = tested on: IL-1 release from cultured cartilage cells; assay: Inhibition of IL-1 release from cultured cartilage cells; type: cell-based, rabbit; details: 3.3 μM; TPA and A 23187 stimulation, 24 hours
Protocol: Cartilages were aseptically taken out from knee and shoulder joints of young rabbit, treated with a Ham medium containing 0.2% collagenase and separated each other into single cells. After washed two times with a Ham medium containing 10% FBS, the cells were dispersed into the Ham medium containing 10% FBS at a concentration of 10^5 cells/ml. […] After 24 hours of cultivation, IL-1 released into each of the supernatants was measured by a bioassay applying an incorporated amount of ^3 H-thymidine (^3 H-TdR) as an index. […] In the Figure, "Intact" means a case TPA and the ionophore were not added and accordingly no stimulation of IL-1 release was given.

[8] = tested on: proteoglycan (PG) in cultured cartilage cells; assay: Synthesis, release and remaining amount of proteoglycan (PG) in cultured cartilage cells; type: cell-based, rat
Protocol: Costal cartilage was aseptically taken out from male SD rats of 4 weeks age, enzymatically treated to separate it into single cells, then inoculated into a 12-well culture dish and cultured under an atmosphere containing 5% CO2 at 37° C. After the chondrocytes had been grown to confluence, 1 to 10 μM of PAL or 10 to 100 μM of PAC was added and three hours later, 2 μCi of Na2^35 SO4 was further added to each well. Twenty four hours later, the synthesis amount in, release amount from and remaining amount of PG in the matrix were determined using amount of ^35 S as an index. […] In the Figures, the PG release in the control was defined as 100%. […] In FIGS. 4(a), 4(b) and 4(c), the released amount of PG means the amount representing the PG degraded in and released from cartilage matrixes, which was calculated on a basis of ^35 S in the culture medium. The remaining amount of PG means the PG not degraded in the matrixes and was also calculated in the same way as above. Sum of the released and the remaining amounts of PG is thought to be a synthesized PG.

| Compound | acute toxicities (LD50), compared with ACP [1] | inhibiting activity on PG release (further compounds) [3] | further results |
| --- | --- | --- | --- |
| O=C(Oc1ccc(C(OC(=O)c2ccccc2)OC(=O)c2ccccc2)cc1OC(=O)c1ccccc1)c1ccccc1 [3,4-dibenzoyloxybenzylidene dibenzoate] | approximately same values | – | inhibition of IL-1 release [2]: significantly inhibit; inhibition of PG release under IL-1α [3]: inhibited the release amount of PG |
| O=C(O)c1ccc(O)c(O)c1 [PAC, 3,4-dihydroxybenzoic acid] | – | same effects | LD50 at 192 h ([4]; mouse, in vivo, ip, observed 8 days): ≥ 400 mg/kg; inhibiting activity of IL-1α production [5]: inhibiting activity of IL-1α only; inhibiting activity of IL-1β production [6]: inhibiting activity of IL-1α only; inhibition of IL-1 release from cartilage cells [7]: inhibit the release of IL-1; effect on PG synthesis ([8]; PAL 1 to 10 μM, PAC 10 to 100 μM, 24 hours): no effect; inhibition of PG release ([8]; PAL 1 to 10 μM, PAC 10 to 100 μM, control release 100%): exhibited inhibiting activities on the PG release; remaining amount of PG in the matrix ([8]; PAL between 1 and 3.3 μM, PAC between 10 and 100 μM): increased in proportion to the adding amount |
| CCCCCCCCCCCCCCCCCC(=O)OC(OC(=O)CCCCCCCCCCCCCCCCC)c1ccc(OC(C)=O)c(OC(C)=O)c1 [3,4-diacetoxybenzylidene di-n-octadecanoate] | approximately same values | same effects | – |
| CCCCCCCCCCCCCCCCCC(=O)Oc1ccc(C(OC(C)=O)OC(C)=O)cc1OC(=O)CCCCCCCCCCCCCCCCC [3,4-di-n-octadecanoyloxybenzylidene diacetate] | approximately same values | same effects | – |
| CC(=O)Oc1ccc(C(=O)[O-])cc1OC(C)=O.[Na+] [3,4-diacetoxybenzoic acid sodium salt] | approximately same values | same effects | – |
| CCCCCCCCCCCCCC(=O)Oc1ccc(C(OC(=O)CCCCCCCCCCCCC)OC(=O)CCCCCCCCCCCCC)cc1OC(=O)CCCCCCCCCCCCC [3,4-di-n-tetradecanoyloxybenzylidene di-n-tetradecanoate] | approximately same values | same effects | – |
| CC(=O)Oc1ccc(C=O)cc1OC(C)=O [3,4-diacetoxybenzaldehyde] | approximately same values | same effects | – |
| CC(=O)Oc1ccc(C(=O)O)cc1OC(C)=O [3,4-diacetoxybenzoic acid] | approximately same values | same effects | – |
| CCCCCCCCCCCCCCCCCC(=O)Oc1ccc(C(OC(=O)CCCCCCCCCCCCCCCCC)OC(=O)CCCCCCCCCCCCCCCCC)cc1OC(=O)CCCCCCCCCCCCCCCCC [3,4-di-n-octadecanoyloxybenzylidene di-n-octadecanoate] | approximately same values | – | inhibition of IL-1 release [2]: significantly inhibit; inhibition of PG release under IL-1α [3]: inhibited the release amount of PG |
| O=Cc1ccc(OC(=O)c2ccccc2)c(OC(=O)c2ccccc2)c1 [3,4-dibenzoyloxybenzaldehyde] | approximately same values | same effects | – |
| O=C(O)c1ccc(O)c(O)c1 [sodium salt of PAC] | – | – | LD50 value, compared with PAC ([4]; level relative to PAC (not less than 400 mg/kg)): same level of LD50 value |
| CCC(=O)Oc1ccc(C(OC(=O)CC)OC(=O)CC)cc1OC(=O)CC [3,4-di-n-propionyloxybenzylidene di-n-propionate] | approximately same values | – | inhibition of IL-1 release [2]: significantly inhibit; inhibition of PG release under IL-1α [3]: inhibited the release amount of PG |
| CCCC(=O)Oc1ccc(C(OC(=O)CCC)OC(=O)CCC)cc1OC(=O)CCC [3,4-di-n-butyryloxybenzylidene di-n-butyrate] | approximately same values | same effects | – |
| CCCCCCCCCCCC(=O)Oc1ccc(C(OC(=O)CCCCCCCCCCC)OC(=O)CCCCCCCCCCC)cc1OC(=O)CCCCCCCCCCC [3,4-di-n-dodecanoyloxybenzylidene di-n-dodecanoate] | approximately same values | – | inhibition of IL-1 release [2]: significantly inhibit; inhibition of PG release under IL-1α [3]: inhibited the release amount of PG |
| CCCCCCCCCCCCCCCC(=O)Oc1ccc(C(OC(=O)CCCCCCCCCCCCCCC)OC(=O)CCCCCCCCCCCCCCC)cc1OC(=O)CCCCCCCCCCCCCCC [3,4-di-n-hexadecanoyloxybenzylidene di-n-hexadecanoate] | approximately same values | same effects | – |
| CCCCCCCCCCCCCCCCCC(=O)Oc1ccc(C=O)cc1OC(=O)CCCCCCCCCCCCCCCCC [3,4-di-n-octadecanoyloxybenzaldehyde] | approximately same values | same effects | – |
